Measurements: patent US8603986B2, “Compounds and methods for modulating cadherin-mediated processes” (McGill University, priority 2005, dated 2013)
Entries after “also recorded” stand apart in the source; their conditions may differ. Marks after values point to notes of the source that are not given here.

Key:
[1] = target: T1, VE-cadherin/Fc chimeric protein (Homo sapiens, UniProt P33151); assay: Cadherin specificity: phage ELISA on VE-cadherin/Fc; assay type: binding; set-up: key: +: Phage bound to the chimeric protein; −: No phage bound to the chimeric protein
T1 construct: purchased R&D Systems, Minneapolis, Minn
Experimental: (§1) The binding of each clone to the cadherin/Fc chimeric proteins was confirmed by ELISA. Wells of ProBind microtiter plates (Falcon) were coated with either N-cadherin/Fc or E-cadherin/Fc chimeric protein (100 ng/well) or human IgG1 (which contains the Fc fragment) (100 ng/well). After blocking the nonspecific sites with TBS containing 3% BSA and 1.2 mM CaCl2 for 1 h at 37° C., phage clones (10^9 pfu) diluted in TBST containing 3% BSA and 1.2 mM CaCl2 (100 μl/well). Non-coated wells were also used to exclude any phage that bound to the plastic surface. After 1 h incubation at room temperature, wells were washed 3 times with TBST containing 3% BSA and 1.2 mM CaCl2. M13 phage without any insert were used to control the non-specific binding of the phage itself to the target. Monoclonal anti-M13 antibody conjugated to horseradish peroxidase (Amersham Biosciences, Piscataway, N.J.) was diluted in TBST containing 3% BSA and 1.2 mM CaCl2 (1:2,000) and added to each well (100 μl/well). After 1 h incubation at room temperature, wells were washed three times with TBST containing 3% BSA and 1.2 mM CaCl2 and once with TBS containing 1.2 mM CaCl2. Horseradish peroxidase substrate, TMB (Sigma), was added to each well (100 μl/well and after color development the reaction was stopped by addition of 100 μl 0.5 M sulphuric acid to each well. The intensity of the color was measured at 450 nm.
(§2) The phage clones shown to bind to the N-cadherin/Fc chimeric protein by ELISA were also evaluated for their ability to bind to E-cadherin/Fc and VE-cadherin/Fc chimeric proteins. The phage clones shown to bind to the E-cadherin/Fc chimeric protein by ELISA were also evaluated for their ability to bind to N-cadherin/Fc and VE-cadherin/Fc chimeric proteins. The same ELISA protocol described in the previous section was used to perform this evaluation with the exception that the wells were coated with either 100 ng N-cadherin/Fc, E-cadherin/Fc or VE-cadherin/Fc chimeric protein (R&D Systems, Minneapolis, Minn.).

[2] = target: T2, E-cadherin/Fc chimeric protein (Homo sapiens, UniProt P12830); assay: Cadherin/Fc binding assay: phage ELISA on E-cadherin/Fc; set-up: key: +: Phage bound to the chimeric protein; −: No phage bound to the chimeric protein
T2 construct: extracellular domain of human E-cadherin (Asp155-Ile707); purchased R&D Systems, Minneapolis, Minn
T2 sequence (P12830 155-707): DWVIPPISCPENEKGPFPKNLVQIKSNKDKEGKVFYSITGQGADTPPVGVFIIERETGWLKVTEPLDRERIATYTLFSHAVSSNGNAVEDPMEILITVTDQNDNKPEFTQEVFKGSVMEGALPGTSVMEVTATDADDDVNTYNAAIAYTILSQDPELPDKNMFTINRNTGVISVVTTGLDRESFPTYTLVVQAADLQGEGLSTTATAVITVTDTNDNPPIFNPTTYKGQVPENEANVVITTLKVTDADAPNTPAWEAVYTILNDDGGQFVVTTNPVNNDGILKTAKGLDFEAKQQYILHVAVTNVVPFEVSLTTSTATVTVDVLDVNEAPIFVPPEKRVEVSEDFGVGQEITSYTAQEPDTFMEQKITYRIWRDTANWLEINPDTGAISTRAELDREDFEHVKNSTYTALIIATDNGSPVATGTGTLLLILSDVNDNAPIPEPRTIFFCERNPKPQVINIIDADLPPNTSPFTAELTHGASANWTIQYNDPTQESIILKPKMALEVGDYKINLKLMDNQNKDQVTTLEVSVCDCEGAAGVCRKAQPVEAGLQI
Description: (§3) The peptide libraries, Ph.D.-C7C™ and Ph.D.-12™ (New England BioLabs) were used in this study. These libraries are composed of 2×10^9 randomized 7 amino acid sequences flanked by cysteine residues and linear 12 amino acid sequences, respectively. The amino acid sequences are incorporated into the minor coat protein, pIII, of M13 phage. The N-cadherin/Fc chimeric protein (R&D Systems, Minneapolis, Minn.) consists of the extracellular domain of human N-cadherin (Asp160-Ala724) and the Fc region of human IgG1. The E-cadherin/Fc chimeric protein (R&D Systems, Minneapolis, Minn.) consists of the extracellular domain of human E-cadherin (Asp155-Ile707) and the Fc region of human IgG1.
as §1, §2

[3] = target: T3, N-cadherin/Fc chimeric protein (Homo sapiens, UniProt P19022); assay: Cadherin/Fc binding assay: phage ELISA on N-cadherin/Fc; set-up: key to ELISA Phage Binding to N-Cadherin/Fc Chimeric Protein 1.2 mM calcium / ELISA Phage Binding to N-Cadherin/Fc Chimeric Protein 2 mM EDTA / ELISA Phage Binding to Cadherin/Fc Chimeric Proteins N−: +: Phage bound to the chimeric protein; −: No phage bound to the chimeric protein
T3 construct: extracellular domain of human N-cadherin (Asp160-Ala724); purchased R&D Systems, Minneapolis, Minn
T3 sequence (P19022 160-724): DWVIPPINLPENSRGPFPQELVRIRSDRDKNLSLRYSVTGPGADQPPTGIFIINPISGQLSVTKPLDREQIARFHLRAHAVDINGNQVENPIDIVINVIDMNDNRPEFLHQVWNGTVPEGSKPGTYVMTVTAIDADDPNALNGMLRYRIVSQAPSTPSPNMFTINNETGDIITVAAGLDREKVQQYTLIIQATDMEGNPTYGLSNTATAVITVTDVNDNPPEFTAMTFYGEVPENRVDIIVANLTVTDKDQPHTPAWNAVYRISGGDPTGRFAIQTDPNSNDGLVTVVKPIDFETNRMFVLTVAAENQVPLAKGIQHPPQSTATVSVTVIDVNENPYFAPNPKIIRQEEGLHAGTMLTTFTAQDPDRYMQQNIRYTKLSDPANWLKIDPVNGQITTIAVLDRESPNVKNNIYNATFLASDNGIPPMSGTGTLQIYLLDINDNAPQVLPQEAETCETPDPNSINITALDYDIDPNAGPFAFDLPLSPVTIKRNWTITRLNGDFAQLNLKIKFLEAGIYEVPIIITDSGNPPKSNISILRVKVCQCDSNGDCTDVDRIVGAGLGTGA
Description: as §3
The binding of each clone to the cadherin/Fc chimeric proteins was confirmed by ELISA. Wells of ProBind microtiter plates (Falcon) were coated with either N-cadherin/Fc or E-cadherin/Fc chimeric protein (100 ng/well) or human IgG1 (which contains the Fc fragment) (100 ng/well). […] Non-coated wells were also used to exclude any phage that bound to the plastic surface. […] M13 phage without any insert were used to control the non-specific binding of the phage itself to the target. […] […] Horseradish peroxidase substrate, TMB (Sigma), was added to each well (100 μl/well and after color development the reaction was stopped by addition of 100 μl 0.5 M sulphuric acid to each well. The intensity of the color was measured at 450 nm.
as §2

[4] = Table 6, Ph.D.-C7C clones selected on E-cadherin/Fc
[5] = Table 7, Ph.D.-12 clones selected on E-cadherin/Fc
[6] = Table 4, Ph.D.-12 library clones
[7] = Table 3, clones selected in the absence of calcium
[8] = Table 2, Ph.D.-C7C library clones

T1 sequence (P33151 with tags, fused parts or gaps limits assumed, species assumed): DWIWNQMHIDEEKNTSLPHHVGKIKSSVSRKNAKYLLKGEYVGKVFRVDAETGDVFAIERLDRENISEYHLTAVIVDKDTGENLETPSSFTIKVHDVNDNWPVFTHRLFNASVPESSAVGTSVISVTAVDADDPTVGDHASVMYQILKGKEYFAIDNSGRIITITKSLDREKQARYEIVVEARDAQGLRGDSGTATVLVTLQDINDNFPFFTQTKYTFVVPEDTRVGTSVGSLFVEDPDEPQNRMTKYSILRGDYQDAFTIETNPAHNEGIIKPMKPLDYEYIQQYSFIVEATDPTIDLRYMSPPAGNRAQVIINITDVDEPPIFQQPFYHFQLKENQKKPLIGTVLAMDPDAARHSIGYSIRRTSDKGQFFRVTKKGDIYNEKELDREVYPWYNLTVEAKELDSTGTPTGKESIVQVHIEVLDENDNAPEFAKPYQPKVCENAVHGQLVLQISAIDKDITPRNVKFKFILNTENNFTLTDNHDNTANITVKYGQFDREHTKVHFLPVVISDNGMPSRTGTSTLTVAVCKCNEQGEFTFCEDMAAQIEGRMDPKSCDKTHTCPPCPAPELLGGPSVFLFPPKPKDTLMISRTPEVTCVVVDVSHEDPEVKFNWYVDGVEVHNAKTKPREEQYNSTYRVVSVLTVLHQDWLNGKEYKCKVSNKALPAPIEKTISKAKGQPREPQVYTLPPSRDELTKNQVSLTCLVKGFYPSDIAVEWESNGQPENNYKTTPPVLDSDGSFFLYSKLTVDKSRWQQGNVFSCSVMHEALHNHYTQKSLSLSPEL

Sequence	ELISA Phage Binding to Cadherin/Fc Chimeric Proteins VE− [1, 4]	ELISA Phage Binding to Cadherin/Fc Chimeric Proteins E− [2, 4]	ELISA Phage Binding to Cadherin/Fc Chimeric Proteins N− [3, 4]	ELISA Phage Binding to Cadherin/Fc Chimeric Proteins VE− [1, 5]	ELISA Phage Binding to Cadherin/Fc Chimeric Proteins E− [2, 5]	ELISA Phage Binding to Cadherin/Fc Chimeric Proteins N− [3, 5]	other results
WQFCYAQHC [Ec 2]	−	+	+				
SWTLYTPSGQSK [Nc 12-04]							ELISA Phage Binding to Cadherin/Fc Chimeric Proteins VE− [1, 6]: −; ELISA Phage Binding to Cadherin/Fc Chimeric Proteins E− [2, 6]: −; ELISA Phage Binding to N-Cadherin/Fc Chimeric Protein 1.2 mM calcium [3, 6]: +; ELISA Phage Binding to N-Cadherin/Fc Chimeric Protein 2 mM EDTA [3, 6]: −
WQVCVGAHC [NoCa11]							ELISA Phage Binding to Cadherin/Fc Chimeric Proteins VE− [1, 7]: −; ELISA Phage Binding to Cadherin/Fc Chimeric Proteins E− [2, 7]: −; phage binding to N-cadherin/Fc chimeric protein by ELISA [3]: good ELISA signal; also recorded: strong ELISA signal; ELISA Phage Binding to N-Cadherin/Fc Chimeric Protein 1.2 mM calcium [3, 7]: +; ELISA Phage Binding to N-Cadherin/Fc Chimeric Protein 2 mM EDTA [3, 7]: +
CSKYNSPLC [Ec a4]	−	+	+				
QWEIRYPWPSMG [Ec 12-a1]				−	+	+	
HWYITTGPVREK [Nc 12-01]							ELISA Phage Binding to Cadherin/Fc Chimeric Proteins VE− [1, 6]: −; ELISA Phage Binding to Cadherin/Fc Chimeric Proteins E− [2, 6]: −**; ELISA Phage Binding to N-Cadherin/Fc Chimeric Protein 1.2 mM calcium [3, 6]: +*; ELISA Phage Binding to N-Cadherin/Fc Chimeric Protein 2 mM EDTA [3, 6]: +
EWFWSWPGYSNT [Ec 12-a13]				−	+	+	
WELVQCLTC [Ec 1]	−	+	+				
WEVCLTEKC [Nc 15]							ELISA Phage Binding to Cadherin/Fc Chimeric Proteins VE− [1, 8]: −; ELISA Phage Binding to Cadherin/Fc Chimeric Proteins E− [2, 8]: −; ELISA Phage Binding to N-Cadherin/Fc Chimeric Protein 1.2 mM calcium [3, 8]: +; ELISA Phage Binding to N-Cadherin/Fc Chimeric Protein 2 mM EDTA [3, 8]: −
WTMCYPDTC [Ec 7]	−**	+*	+				

More lines, main results first:

ELISA Phage Binding to Cadherin/Fc Chimeric Proteins VE− [1, 4]	ELISA Phage Binding to Cadherin/Fc Chimeric Proteins E− [2, 4]	ELISA Phage Binding to Cadherin/Fc Chimeric Proteins N− [3, 4]	ELISA Phage Binding to Cadherin/Fc Chimeric Proteins VE− [1, 5]	ELISA Phage Binding to Cadherin/Fc Chimeric Proteins E− [2, 5]	ELISA Phage Binding to Cadherin/Fc Chimeric Proteins N− [3, 5]	Sequence	other results
			−**	+*	+	SWTWHFPESPPP [Ec 12-01]	
			−	+	+	EWTFQWNSYPAD [Ec 12-10]	
			−	+	+	EWTWVFPTTHTS [Ec 12-07]	
